Measured values published in US20260002950A1, “Uses of 5-Aminovaleric Acid Betaine and Compositions Related Thereto” (Emory University, priority 2021, published 2026).
“Also recorded” adds a separate entry of the source. Blank lines part the entries; values can stand above or below the molecule they belong to.

Assays:
[1] = Concentrations of VB in tissues and circulation of conventional mice (mass spectrometry); type: in vivo; details: endogenous
Text: To identify microbial metabolites that could impact mitochondrial function, the metabolome of liver and liver mitochondria was examined in mice with an intact microbiome (“conventionalized” mice in which germ-free mice were reconstituted with microbiome) compared to liver and liver mitochondria from germ-free mice (FIG. 1A). The top discriminatory metabolite has an accurate mass m/z of 160.1332 by ultra-high-resolution mass spectrometry, corresponding to predicted elemental composition C8H18NO2. This metabolite is found in liver and other tissues, portal and peripheral circulation, and cecum of conventional but not germ-free mice (FIG. 1B). Authentic standard co-elution and MS/MS experiments show the identity of 160.1332 m/z to be delta-valerobetaine (VB) (FIG. 1C). Concurrent analyses of propionylcholine and valine betaine, similar molecules with identical elemental compositions, conclusively excluded these structures. VB was not present in the mouse diet and was not detectable in other samples collected from GF mice. […] Concentrations were 9-26 μM in the portal vein, with higher concentrations in the liver (75-190 μmol/kg wet weight) and lower concentrations in the peripheral plasma (2-10 μM) indicating tissue accumulation.

human HepG2 cells = assay: Cell content of carnitine in HepG2 cells, VB dose-response; type: cell-based; details: VB at 10 μM, vs control cells
Protocol: (§1) Dose-response experiments with VB were performed in vitro and in vivo to examine metabolic effects of VB. The mitochondrial carnitine shuttle is the top metabolic pathway associated with VB in human HepG2 cells. […] The carnitine shuttle uses carnitine for transport of long-chain fatty acyl chains into mitochondria for fatty acid β-oxidation. […] The effect of VB on inhibition of palmitate-dependent oxygen consumption rate is confirmed by stable isotope tracer studies of palmitate metabolism, which show VB inhibits formation of ^13C16 palmitoylcarnitine from ^13C16 palmitate and decreases the formation of ^13C2 acetyl-CoA (FIG. 2D). […] Thus, VB inhibits mitochondrial long chain fatty acid metabolism through effects on carnitine and operation of the carnitine shuttle.

HepG2 cells = assay: Palmitate-dependent mitochondrial O2 consumption rate in HepG2 cells; type: cell-based, human
Protocol: […] Effect of VB is most pronounced in the spare capacity measured after addition of the uncoupler FCCP.
as §1

carnitine shuttle = assay: Stable isotope tracer study of palmitate metabolism in cultured cells; type: cell-based
Protocol: as §1

mice [2] = assay: VB treatment of mice, daily intraperitoneal injection for 1 week: carnitine and metabolite profiles; type: in vivo
Protocol: Mice of each sex were given daily intraperitoneal injection with saline (n=5), VB at 10 mg/kg (n=3) or VB at 100 mg/kg (n=8) for 1 week. Kruskal-Wallis test with Dunn's multiple comparisons test to identify pairwise differences in GraphPad Prism 6.0.
(§2) As observed in cells, the carnitine shuttle is the top metabolic pathway associated with VB-treatment in mice. VB treatment decreases circulating (FIG. 2A), hepatic (FIG. 2B), heart, and brain carnitine. Furthermore, VB treatment alters circulating and systemic acylcarnitine and acyl-CoA profiles. In whole tissue, VB increases hepatic and cardiac palmitoyl-CoA and decreases other short, medium, and long-chain acylcarnitines and CoAs under fasted conditions. In mitochondria, VB decreases the abundance of long-chain fatty acyl-CoAs and carnitines, consistent with a decrease in long-chain fatty acid β oxidation. VB also decreases circulating and hepatic β-hydroxybutyrate, a product of mitochondrial β-fatty acid oxidation.

mice [3] = assay: VB treatment of mice for 3 days ± fasting: hepatic lipid accumulation; type: in vivo
Protocol: Mice of each sex were given daily intraperitoneal injection with saline (n=5) or VB at 100 mg/kg (n=5) for 3 days±fasting.
as §2

conventional mice = assay: 8-week VB treatment of conventional mice on Western or control diet: adiposity; type: in vivo
Text: (n=5 per group, one-tailed t-test).
The relative increases are most pronounced in VAT, where fat mass in VB-treated mice on a Western diet was increased 80% in male mice and 60% in female mice compared to Western diet alone. […] The long-term consequences of VB inhibition of mitochondrial β-oxidation of fatty acids therefore include effects on body composition in mice receiving Western diet, with specific and pronounced effects on visceral adipose tissue mass.
(§3) VB effects in fasting are particularly intriguing as a mechanism causing obesity because decreasing mitochondrial β-oxidation of lipids mobilized from adipose tissue during fasting could cause a long-term increase in fat deposition. Therefore, experiments were performed to determine whether long-term VB treatment could increase weight gain and adiposity in mice. This was tested this in both GF and conventional mice, with or without a high-fat/sugar WD. Backhead et al. report a resistance to diet-induced obesity in germ-free mice. PNSA, 104 (3), 2007. […] Furthermore, VB treatment exacerbated the development of hepatic steatosis in these mice (FIG. 4E). Similarly, VB increased adipose tissue fat mass (VAT, SubQ, BAT) in conventional mice after 8 weeks with the WD. The relative increases were most pronounced in white adipose compartments (VAT, SubQ) where fat mass in VB treated GF and conventional mice on a WD was increased over 80% compared to WD alone.
(§4) Although WD-fed mice gained more weight than control fed mice, no differences in circulating VB were observed between WD or control-diet-fed conventional mice. These effects were not observed in GF or conventional mice fed the control diet.

GF mice = assay: 6-week VB treatment of germ-free (GF) mice on Western or control diet; type: in vivo
Protocol: FIG. 4A illustrates experiments on long-term VB treatment in GF mice. Male GF mice were administered PBS or VB in conjunction with a control diet (CD) or WD for 6 weeks with body weight recorded as percentage weight gain (two-way repeat measures ANOVA with multiple comparisons per day.
as §3, §4

PPAR-response element = assay: PPAR-response element-linked luciferase activity; type: cell-based
Text: An alternative interpretation of VB activity involves an adaptive response termed mitohormesis, a process by which a minor impairment increases gene expression of mitochondrial systems which improve metabolic function of mitochondria. […] With this interpretation, VB-induced lipid accumulation could drive activity of SIRT1, PGC-1a and PPAR-a pathways which control carnitine homeostasis, mitochondrial bioenergetics, and lipid metabolism. […] Thus, VB may function through a mitohormesis response mechanism and in conjunction with diet and aging, contribute to age dependent changes in adiposity.

mouse cardiomyocytes = details: cited from earlier work
[4] = molecular target: T1, γ-butyrobetaine hydroxylase (Homo sapiens, UniProt O75936); details: cited from earlier work
T1 sequence (O75936 1-387): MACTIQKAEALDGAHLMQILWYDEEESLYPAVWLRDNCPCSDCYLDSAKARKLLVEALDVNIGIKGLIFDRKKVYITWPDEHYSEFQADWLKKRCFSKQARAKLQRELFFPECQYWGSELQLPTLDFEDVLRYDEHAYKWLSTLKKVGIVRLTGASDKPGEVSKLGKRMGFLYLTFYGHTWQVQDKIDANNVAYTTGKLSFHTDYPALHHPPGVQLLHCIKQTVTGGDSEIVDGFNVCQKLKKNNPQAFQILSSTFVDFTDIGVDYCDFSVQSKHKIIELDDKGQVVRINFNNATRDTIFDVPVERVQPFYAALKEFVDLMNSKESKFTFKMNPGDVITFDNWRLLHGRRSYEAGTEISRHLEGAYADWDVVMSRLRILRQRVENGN

mice [5] = details: cited from earlier work

- Concentration of VB in the cecum [1]: millimolar range
- Concentration of VB in the liver [1]: 75-190 μmol/kg wet weight
- Concentration of VB in the peripheral plasma [1]: 2 to 10 µM
- Concentration of VB in the portal vein [1]: 9 to 26 µM
- Concentration of VB in the colon ([1]; relative to cecum): somewhat lower concentrations
- PPAR-response element-linked luciferase activity (PPAR-response element): dose-dependent increase
Structure (SMILES): C[N+](C)(C)CCCCC(=O)[O-] [VB, 5-(trimethylammonio) pentanoate]
- Cell content of carnitine (human HepG2 cells): decreased to half that of control cells
- Palmitate-dependent mitochondrial oxygen respiration (O2 consumption rate) (HepG2 cells; HepG2, 12 h without glucose, glutamine and pyruvate (mimicking fasting), VB 10 or 50 μM): inhibited; also recorded: dose-dependent decrease
- Basal, ADP-linked O2 consumption rate, spare capacity, non-mitochondrial respiration (HepG2 cells; glucose, glutamine and pyruvate present at high concentration in culture media): little decrease
- Formation of 13C16 palmitoylcarnitine from 13C16 palmitate (carnitine shuttle; cultured cells): inhibits
- Formation of 13C2 acetyl-CoA from labeled palmitate (carnitine shuttle; cultured cells, n=3): decreases
- Circulating and hepatic β-hydroxybutyrate (mice [2]): decreases
- Circulating carnitine (mice [2]; VB 10 or 100 mg/kg i.p. daily, 1 week): decreases
- Brain carnitine (mice [2]; VB treatment): decreases
- Heart carnitine (mice [2]; VB treatment): decreases
- Hepatic carnitine (mice [2]; VB treatment): decreases
- Triacylglycerol and diacylglycerol species in liver, heart and brain (mice [2]; lipid profiling): increases
- Abundance of long-chain fatty acyl-CoAs and carnitines in mitochondria (mice [2]; mitochondria): decreases
- Liver triglycerides (hepatic steatosis) (mice [3]; male and female mice, VB 100 mg/kg i.p. 3 days, fasted): exacerbates hepatic steatosis; also recorded: increase
- Liver lipid deposits, Oil Red O staining (mice [3]; mice, especially under fasted conditions): increases lipid deposits
- Hepatic and cardiac palmitoyl-CoA (mice [3]; mice, whole tissue, fasted conditions): increases
- Weight of brown adipose tissue (BAT) (conventional mice; 8 weeks): increased by VB in a diet dependent manner after 8-week VB treatment in males but not females; also recorded: increases brown adipose tissue (BAT) but in a less consistent manner
- Weight of subcutaneous white adipose tissue (WAT) (conventional mice; Western diet, 8 weeks): increased by VB in a diet-dependent manner; also recorded: substantial increases
- Weight of visceral adipose tissue (VAT) (conventional mice; Western diet, 8 weeks): increased by VB in a diet dependent manner; also recorded: substantial increases
- Increase of fat mass in white adipose compartments (VAT, SubQ) vs WD alone (conventional mice; conventional mice on WD): over 80%
- Adipose tissue fat mass (VAT, SubQ, BAT) (conventional mice; conventional mice, WD, 8 weeks): increased
- Severity of hepatic steatosis (conventional mice; conventional mice, Western diet, 8 weeks): Trends for increase
- Total body mass (conventional mice; conventional mice, Western diet, after 8 weeks, not p<0.05): Trends for increase
- Effects on adiposity, steatosis and body mass on control diet (conventional mice; conventional mice, control diet): not observed
- Increase of visceral adipose tissue (VAT) fat mass vs Western diet alone (conventional mice; female mice, Western diet, 8 weeks): 60%
- Increase of visceral adipose tissue (VAT) fat mass vs Western diet alone (conventional mice; male mice, Western diet, 8 weeks): 80%
- Carnitine concentrations after parenteral VB dosing (GF mice; GF mice): equivalent to conventional mice
- Increase of fat mass in white adipose compartments (VAT, SubQ) vs WD alone (GF mice; GF mice on WD): over 80%
- Adipose tissue fat mass in VAT, SubQ and BAT compartments vs WD alone (GF mice; GF mice, WD, six weeks): substantial increases
- Weight gain (GF mice; GF mice, WD, six weeks): increased weight gain
- Development of hepatic steatosis (GF mice; GF mice, WD, six weeks, liver H&E scoring): exacerbated
- Effects on adiposity, steatosis and body mass on control diet (GF mice; GF mice, control diet): not observed
- β-oxidation of fatty acids (mouse cardiomyocytes): decreases
- γ-butyrobetaine hydroxylase activity [4]: inhibits
- Fatty liver (mice [5]): exacerbates

Structure (SMILES): C[N+](C)(C)CC(O)CC(=O)[O-] (centres unmarked) [carnitine, reference compound]
- Rescue of VB effect on cellular carnitine and palmitoylcarnitine formation (carnitine shuttle; addition of carnitine to VB-treated cells): restores cellular carnitine and formation of palmitoylcarnitine
